Results published in PubChem BioAssay AID1919009 (Molecular Pharmacology Branch, DTP, NCI, 2023).

Test system: K24384-001-R-PDC complex spheroid growth
Test: Anticancer human tumor K24384-001-R-PDC patient-derived pancreatic adenocarcinoma cell line growth inhibition [AhR]
Details: for IC50: curve of first compound; for viability, T/C: stronger effect = lower value
Outline: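 Agents were dosed in half-log steps down from roughly clinical Cmax, or from 10 microM where Cmax was unknown, alone and with AhR antagonists. Read-out: percent test/control growth of tumor spheroids containing HUVEC and MSC stromal cells.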

[1] = second compound 0.1 µM, first compound 0.0316 µM
[2] = second compound 0.1 µM, first compound 0.1 µM
[3] = second compound 0.1 µM, first compound 0.316 µM
[4] = second compound 0.1 µM, first compound 1 µM
[5] = second compound 0.1 µM, first compound 3.16 µM
[6] = second compound 0.1 µM, first compound 10 µM
[7] = second compound 0.316 µM, first compound 0.0316 µM
[8] = second compound 0.316 µM, first compound 0.1 µM
[9] = second compound 0.316 µM, first compound 0.316 µM
[10] = second compound 0.316 µM, first compound 1 µM
[11] = second compound 0.316 µM, first compound 3.16 µM
[12] = second compound 0.316 µM, first compound 10 µM
[13] = second compound 1 µM, first compound 0.0316 µM
[14] = second compound 1 µM, first compound 0.1 µM
[15] = second compound 1 µM, first compound 0.316 µM
[16] = second compound 1 µM, first compound 1 µM
[17] = second compound 1 µM, first compound 3.16 µM
[18] = second compound 1 µM, first compound 10 µM
[19] = second compound 3.16 µM, first compound 0.0316 µM
[20] = second compound 3.16 µM, first compound 0.1 µM
[21] = second compound 3.16 µM, first compound 0.316 µM
[22] = second compound 3.16 µM, first compound 1 µM
[23] = second compound 3.16 µM, first compound 3.16 µM
[24] = second compound 3.16 µM, first compound 10 µM
[25] = second compound 10 µM, first compound 0.0316 µM
[26] = second compound 10 µM, first compound 0.1 µM
[27] = second compound 10 µM, first compound 0.316 µM
[28] = second compound 10 µM, first compound 1 µM
[29] = second compound 10 µM, first compound 3.16 µM
[30] = second compound 10 µM, first compound 10 µM
[31] = second compound 0.1 µM, first compound 0.00316 µM
[32] = second compound 0.1 µM, first compound 0.01 µM
[33] = second compound 0.316 µM, first compound 0.00316 µM
[34] = second compound 0.316 µM, first compound 0.01 µM
[35] = second compound 1 µM, first compound 0.00316 µM
[36] = second compound 1 µM, first compound 0.01 µM
[37] = second compound 3.16 µM, first compound 0.00316 µM
[38] = second compound 3.16 µM, first compound 0.01 µM
[39] = second compound 10 µM, first compound 0.00316 µM
[40] = second compound 10 µM, first compound 0.01 µM
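Wherever viability, T/C is given: percent of DMSO vehicle-treated spheroid viability set as 100%.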

Row | IC50 (second compound 0.1 µM) | IC50 (second compound 0.316 µM) | IC50 (second compound 1 µM) | IC50 (second compound 3.16 µM) | IC50 (second compound 10 µM) | SMILES | viability, T/C [1] | viability, T/C [2] | viability, T/C [3] | viability, T/C [4] | viability, T/C [7] | viability, T/C [8] | viability, T/C [9] | viability, T/C [10] | viability, T/C [13] | viability, T/C [14] | viability, T/C [15] | viability, T/C [19] | viability, T/C [20] | viability, T/C [25] | viability, T/C [26] | further results
1 | > 10 µM | > 10 µM | > 10 µM | > 10 µM | > 10 µM | CC(C)c1c(-c2ccccc2)nc2c(C#N)c[nH]n2c1=O + CC(CO)NC(=O)c1cc(-c2ccc(Cl)cc2)nn(-c2cnn(C)c2)c1=O | 118% | 122% | 76.2% | 99.7% | 116% | 107% | 89.4% | 96.8% | 92.7% | 80% | 94.2% | 63.2% | 75.1% | 77.5% | 74.4% | viability, T/C [5]: 92.2%; viability, T/C [6]: 80.8%; viability, T/C [11]: 73%; viability, T/C [12]: 78.3%; viability, T/C [16]: 64.7%; viability, T/C [17]: 72.1%; viability, T/C [18]: 72.8%; viability, T/C [21]: 79.8%; viability, T/C [22]: 64%; viability, T/C [23]: 68.7%; viability, T/C [24]: 63.5%; viability, T/C [27]: 62.5%; viability, T/C [28]: 60.6%; viability, T/C [29]: 52.3%; viability, T/C [30]: 61.6%
2 | 0.0281 µM | 0.0245 µM | 0.0284 µM | 0.0196 µM | 0.0307 µM | CC[C@@]1(O)C(=O)OCc2c1cc1n(c2=O)Cc2cc3c(CN(C)C)c(O)ccc3nc2-1 + Cc1ccccc1N=Nc1ccc(NC(=O)c2ccnn2C)c(C)c1 | 48.5% | 44.9% |  |  | 46.9% | 39.6% |  |  | 50.2% | 38.4% |  | 38.3% | 39.1% | 51.5% | 47.4% | viability, T/C (second compound 0.1 µM, first compound 0.000316 µM): 93.4%; viability, T/C (second compound 0.1 µM, first compound 0.001 µM): 96.2%; viability, T/C [31]: 95.4%; viability, T/C [32]: 72.2%; viability, T/C (second compound 0.316 µM, first compound 0.000316 µM): 97.3%; viability, T/C (second compound 0.316 µM, first compound 0.001 µM): 90.7%; viability, T/C [33]: 98.6%; viability, T/C [34]: 70.5%; viability, T/C (second compound 1 µM, first compound 0.000316 µM): 101%; viability, T/C (second compound 1 µM, first compound 0.001 µM): 94.1%; viability, T/C [35]: 94.7%; viability, T/C [36]: 67.8%; viability, T/C (second compound 3.16 µM, first compound 0.000316 µM): 87.3%; viability, T/C (second compound 3.16 µM, first compound 0.001 µM): 99.8%; viability, T/C [37]: 92.5%; viability, T/C [38]: 65.8%; viability, T/C (second compound 10 µM, first compound 0.000316 µM): 111%; viability, T/C (second compound 10 µM, first compound 0.001 µM): 101%; viability, T/C [39]: 109%; viability, T/C [40]: 68.7%
3 | 0.955 µM | 1.09 µM | 0.83 µM | 0.969 µM | 2.73 µM | COc1cc(C2c3cc4c(cc3C(OC3OC5COC(C)OC5C(O)C3O)C3COC(=O)C23)OCO4)cc(OC)c1O (stereo not given) + Cc1ccccc1N=Nc1ccc(NC(=O)c2ccnn2C)c(C)c1 | 97.7% | 96.3% | 77.9% | 49.6% | 104% | 92.5% | 66.3% | 55.2% | 102% | 101% | 83.1% | 78.3% | 89.1% | 102% | 98.5% | viability, T/C [5]: 35.2%; viability, T/C [6]: 35.6%; viability, T/C [11]: 36.5%; viability, T/C [12]: 38.7%; viability, T/C [16]: 43.6%; viability, T/C [17]: 33.9%; viability, T/C [18]: 31.7%; viability, T/C [21]: 64.4%; viability, T/C [22]: 51.6%; viability, T/C [23]: 39.7%; viability, T/C [24]: 35.5%; viability, T/C [27]: 88.6%; viability, T/C [28]: 63.9%; viability, T/C [29]: 46.2%; viability, T/C [30]: 46.4%
4 | 0.0689 µM | 0.0547 µM | < 0.0316 µM | < 0.0316 µM | 0.0504 µM | COc1cccc2c1C(=O)c1c(O)c3c(c(O)c1C2=O)CC(O)(C(=O)CO)CC3OC1CC(N)C(O)C(C)O1 (stereo not given) + Cc1ccccc1N=Nc1ccc(NC(=O)c2ccnn2C)c(C)c1 | 57.9% | 45.7% | 22.5% | 7.05% | 53.7% | 46% | 19% | 8.11% | 42% | 42% | 12.8% | 47.6% | 40.1% | 55.9% | 41.3% | viability, T/C [5]: 3.16%; viability, T/C [6]: 7.56%; viability, T/C [11]: 2.84%; viability, T/C [12]: 8.04%; viability, T/C [16]: 7.59%; viability, T/C [17]: 2.46%; viability, T/C [18]: 8.88%; viability, T/C [21]: 14.3%; viability, T/C [22]: 2.98%; viability, T/C [23]: 6.7%; viability, T/C [24]: 6.51%; viability, T/C [27]: 9.04%; viability, T/C [28]: 8.14%; viability, T/C [29]: 3.61%; viability, T/C [30]: 9.36%
5 | 0.109 µM | 0.168 µM | 0.164 µM | 0.184 µM | 0.493 µM | Nc1ccn(C2OC(CO)C(O)C2(F)F)c(=O)n1 (stereo not given) + Cc1ccccc1N=Nc1ccc(NC(=O)c2ccnn2C)c(C)c1 | 67.6% | 51.8% | 35.9% | 29.9% | 61.8% | 53.7% | 44.5% | 28% | 67.6% | 57.4% | 40.6% | 58% | 60.4% | 69.3% | 63.2% | viability, T/C [5]: 22.9%; viability, T/C [6]: 20.6%; viability, T/C [11]: 19.2%; viability, T/C [12]: 19.7%; viability, T/C [16]: 25.8%; viability, T/C [17]: 21.2%; viability, T/C [18]: 15.1%; viability, T/C [21]: 41.9%; viability, T/C [22]: 25.9%; viability, T/C [23]: 20.5%; viability, T/C [24]: 17.1%; viability, T/C [27]: 60%; viability, T/C [28]: 35.3%; viability, T/C [29]: 28.7%; viability, T/C [30]: 20.1%
6 | > 1 µM | > 1 µM | > 1 µM | > 1 µM | > 1 µM | Nc1ncn(C2CC(O)C(CO)O2)c(=O)n1 (stereo not given) + Cc1ccccc1N=Nc1ccc(NC(=O)c2ccnn2C)c(C)c1 | 90.2% | 79.4% | 87.5% | 68.8% | 100% | 103% | 80.6% | 71.4% | 90% | 89.5% | 73.2% | 83.5% | 68.9% | 97.7% | 79% | viability, T/C [31]: 108%; viability, T/C [32]: 114%; viability, T/C [33]: 102%; viability, T/C [34]: 112%; viability, T/C [35]: 103%; viability, T/C [36]: 99.2%; viability, T/C [16]: 66.9%; viability, T/C [37]: 89.4%; viability, T/C [38]: 85.7%; viability, T/C [21]: 64.9%; viability, T/C [22]: 57.5%; viability, T/C [39]: 93.6%; viability, T/C [40]: 95.1%; viability, T/C [27]: 66.7%; viability, T/C [28]: 58.1%
